# Measured values as given in PubChem BioAssay (NCI).
#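 Five concentrations, 48 hours, 96-well plates. Definition used: TGI = concentration required for complete inhibition of growth.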
# Test system: SK-MEL-5 melanoma
# Test: DTP human tumour cell line panel, 48 h
row,SMILES,TGI [µM]
1,CN(C)C(=O)NCCN1CCCCCc2ccccc21,71.9
2,CCOC(=O)c1nc2c(Cl)c3ncccc3cc2[nH]c1=O,22.7
3,CC1(C#N)CC(C)(C)C(/C=C2/CC(C)(C)C(/C=C3/OC(=N)CC3(C)C)=N2)=N1 (centres undefined),32.4
4,Cc1cccc(/C=N/NC(=S)NCCc2ccccn2)n1,> 100
5,C=CCNC1=C2C[C@@H](C)C[C@@H](OC)[C@@H](OC(=O)CCCN)[C@H](C)/C=C(\C)[C@@H](OC(N)=O)[C@H](OC)/C=C\C=C(/C)C(=O)NC(=CC1=O)C2=O,33.7
6,CCOC(=O)C(N)CSC(=O)NC (centres undefined),393
7,CC(=O)c1csc2c1C(=O)c1scc(C(C)=O)c1C2=O,2.77
8,CCOC(=O)c1csc(NC(=O)C(C)N2CCCCC2)n1 (centres undefined),> 100
9,CCN1c2nc3ccccc3nc2N(CC)c2nc3ccccc3nc21,> 100
10,O=C1c2cc3c(cc2CC12Cc1cc4c(cc1C2=O)CCC4)CCCC3 (centres undefined),> 100
11,N#Cc1sc2nc(/C=C3/C=CC=CC3=O)c(O)n2c1N,> 100
12,CC1(C)OCC2OC3(c4nc(C#N)c(N)o4)OC(C)(C)OC3C2O1 (centres undefined),> 100
13,C[C@H]1[C@H](C)CC[C@]2(C)CC[C@]3(C)C(=C[C@@H](O)[C@@H]4[C@@]5(C)[C@H](O)[C@@H](O)[C@H](O)C(C)(C)[C@@H]5CC[C@]43C)[C@H]12,> 100
14,c1cc(-c2ncc(-c3ccc4c(c3)CCCO4)o2)ccn1,21.2
15,COc1ccnc2c1C(=O)c1nc3ccccc3c3ccnc-2c13,0.437
16,O=C(O)c1ccc(NNc2cc(=O)[nH]c(=O)[nH]2)cc1,> 100
17,COc1ccc2c(c1C)C(=O)C(O)(CC=C(C)C)O2 (centres undefined),> 100
18,COc1ccc(CCNC2=CC(=O)c3ncccc3C2=O)cc1OC,0.793
19,COc1ccc2c(c1)CCc1c-2[nH]c2ccc(OC)cc12,> 100
20,N#Cc1c(-c2ccccc2)[nH]c2ccccc2c1=O,> 100
21,O=C(NCCCNC(=O)c1ccc2c(O)c(O)ccc2c1)c1ccc2c(O)c(O)ccc2c1,46.9
22,CC1=C(Br)C(Br)=C(C)S1=O,22.1
23,O=C1NC(=O)C(c2c[nH]c3cc(Br)ccc23)=C1c1cn(C(c2ccccc2)(c2ccccc2)c2ccccc2)cn1,22.9
24,CCOC(=O)C1=C(Nc2cccc(OC)c2)OCC1=O,> 100

# Test system: A498 renal
# Test: DTP human tumour cell line panel, 48 h
row,SMILES,TGI [µM]
1,CN1CCOC1(C)CO (centres undefined),> 100
2,COc1ccc2c3c1O[C@H]1C(O)CCC4(O)[C@@H](C2)NCC[C@]314 (some centres undefined),> 100
3,N#CSc1nc[nH]c1C(N)=O,> 100
4,CN(C)C(=O)NCCN1CCCCCc2ccccc21,> 100
5,CCOC(=O)c1nc2c(Cl)c3ncccc3cc2[nH]c1=O,> 100
6,CC1(C#N)CC(C)(C)C(/C=C2/CC(C)(C)C(/C=C3/OC(=N)CC3(C)C)=N2)=N1 (centres undefined),37.8
7,Cc1cccc(/C=N/NC(=S)NCCc2ccccn2)n1,87.5
8,C=CCNC1=C2C[C@@H](C)C[C@@H](OC)[C@@H](OC(=O)CCCN)[C@H](C)/C=C(\C)[C@@H](OC(N)=O)[C@H](OC)/C=C\C=C(/C)C(=O)NC(=CC1=O)C2=O,36.3
9,CC(=O)Oc1ccccc1-c1cc2ccccc2oc1=O,> 100
10,CCOC(=O)C(N)CSC(=O)NC (centres undefined),594
11,CC(=O)c1csc2c1C(=O)c1scc(C(C)=O)c1C2=O,2.93
12,CCOC(=O)c1csc(NC(=O)C(C)N2CCCCC2)n1 (centres undefined),> 100
13,CCN1c2nc3ccccc3nc2N(CC)c2nc3ccccc3nc21,> 100
14,O=C1c2cc3c(cc2CC12Cc1cc4c(cc1C2=O)CCC4)CCCC3 (centres undefined),> 100
15,N#Cc1sc2nc(/C=C3/C=CC=CC3=O)c(O)n2c1N,> 100
16,CC1(C)OCC2OC3(c4nc(C#N)c(N)o4)OC(C)(C)OC3C2O1 (centres undefined),> 100
17,C[C@H]1[C@H](C)CC[C@]2(C)CC[C@]3(C)C(=C[C@@H](O)[C@@H]4[C@@]5(C)[C@H](O)[C@@H](O)[C@H](O)C(C)(C)[C@@H]5CC[C@]43C)[C@H]12,> 100
18,c1cc(-c2ncc(-c3ccc4c(c3)CCCO4)o2)ccn1,59.6
19,COc1ccnc2c1C(=O)c1nc3ccccc3c3ccnc-2c13,0.0803
20,O=C(O)c1ccc(NNc2cc(=O)[nH]c(=O)[nH]2)cc1,> 100
21,COc1ccc2c(c1C)C(=O)C(O)(CC=C(C)C)O2 (centres undefined),> 100
22,COc1ccc(CCNC2=CC(=O)c3ncccc3C2=O)cc1OC,3.39
23,COc1ccc2c(c1)CCc1c-2[nH]c2ccc(OC)cc12,> 100
24,N#Cc1c(-c2ccccc2)[nH]c2ccccc2c1=O,> 100
25,O=C(NCCCNC(=O)c1ccc2c(O)c(O)ccc2c1)c1ccc2c(O)c(O)ccc2c1,98
26,CC12CCC(C(=O)OC1=O)C2(C)C (centres undefined),> 100
27,CC1=C(Br)C(Br)=C(C)S1=O,96.5
28,O=C1NC(=O)C(c2c[nH]c3cc(Br)ccc23)=C1c1cn(C(c2ccccc2)(c2ccccc2)c2ccccc2)cn1,37.2
29,CCOC(=O)C1=C(Nc2cccc(OC)c2)OCC1=O,> 100

# Test system: CCRF-CEM leukemia
# Test: DTP human tumour cell line panel, 48 h
row,SMILES,TGI [µM]
1,CN1CCOC1(C)CO (centres undefined),> 100
2,COc1ccc2c3c1O[C@H]1C(O)CCC4(O)[C@@H](C2)NCC[C@]314 (some centres undefined),> 100
3,N#CSc1nc[nH]c1C(N)=O,14.4
4,CN(C)C(=O)NCCN1CCCCCc2ccccc21,> 100
5,CCOC(=O)c1nc2c(Cl)c3ncccc3cc2[nH]c1=O,> 100
6,CC1(C#N)CC(C)(C)C(/C=C2/CC(C)(C)C(/C=C3/OC(=N)CC3(C)C)=N2)=N1 (centres undefined),> 100
7,Cc1cccc(/C=N/NC(=S)NCCc2ccccn2)n1,> 72.9
8,C=CCNC1=C2C[C@@H](C)C[C@@H](OC)[C@@H](OC(=O)CCCN)[C@H](C)/C=C(\C)[C@@H](OC(N)=O)[C@H](OC)/C=C\C=C(/C)C(=O)NC(=CC1=O)C2=O,28.9
9,CC(=O)Oc1ccccc1-c1cc2ccccc2oc1=O,> 100
10,CCOC(=O)C(N)CSC(=O)NC (centres undefined),147
11,CC(=O)c1csc2c1C(=O)c1scc(C(C)=O)c1C2=O,1.82
12,CCOC(=O)c1csc(NC(=O)C(C)N2CCCCC2)n1 (centres undefined),> 100
13,CCN1c2nc3ccccc3nc2N(CC)c2nc3ccccc3nc21,> 100
14,O=C1c2cc3c(cc2CC12Cc1cc4c(cc1C2=O)CCC4)CCCC3 (centres undefined),> 100
15,N#Cc1sc2nc(/C=C3/C=CC=CC3=O)c(O)n2c1N,74.9
16,CC1(C)OCC2OC3(c4nc(C#N)c(N)o4)OC(C)(C)OC3C2O1 (centres undefined),> 100
17,C[C@H]1[C@H](C)CC[C@]2(C)CC[C@]3(C)C(=C[C@@H](O)[C@@H]4[C@@]5(C)[C@H](O)[C@@H](O)[C@H](O)C(C)(C)[C@@H]5CC[C@]43C)[C@H]12,> 100
18,c1cc(-c2ncc(-c3ccc4c(c3)CCCO4)o2)ccn1,29.3
19,COc1ccnc2c1C(=O)c1nc3ccccc3c3ccnc-2c13,1.35
20,O=C(O)c1ccc(NNc2cc(=O)[nH]c(=O)[nH]2)cc1,> 100
21,COc1ccc2c(c1C)C(=O)C(O)(CC=C(C)C)O2 (centres undefined),> 100
22,COc1ccc(CCNC2=CC(=O)c3ncccc3C2=O)cc1OC,39.1
23,COc1ccc2c(c1)CCc1c-2[nH]c2ccc(OC)cc12,97.7
24,N#Cc1c(-c2ccccc2)[nH]c2ccccc2c1=O,> 100
25,O=C(NCCCNC(=O)c1ccc2c(O)c(O)ccc2c1)c1ccc2c(O)c(O)ccc2c1,> 100
26,CC12CCC(C(=O)OC1=O)C2(C)C (centres undefined),> 100
27,CC1=C(Br)C(Br)=C(C)S1=O,6.66
28,O=C1NC(=O)C(c2c[nH]c3cc(Br)ccc23)=C1c1cn(C(c2ccccc2)(c2ccccc2)c2ccccc2)cn1,> 100
29,CCOC(=O)C1=C(Nc2cccc(OC)c2)OCC1=O,> 100

# Test system: PC-3 prostate
# Test: DTP human tumour cell line panel, 48 h
row,SMILES,TGI [µM]
1,CN1CCOC1(C)CO (centres undefined),> 100
2,COc1ccc2c3c1O[C@H]1C(O)CCC4(O)[C@@H](C2)NCC[C@]314 (some centres undefined),> 100
